The text below walks through data of US11918592B2, “Inhibitors of cyclin dependent kinase 7 (CDK7)” (Syros Pharmaceuticals, Inc., priority 2018, dated 2024).

One test deals with HCC70 cells. In words: Inhibition of cell proliferation, CyQUANT Direct, HCC70. It is filed as cell-based, human. The settings on record: Homo sapiens; HCC70 triple negative breast cancer cells, 72-hour; read-out: HCC 70 proliferation calculated IC50.
The subject of another test is COV318 cells. In words: Inhibition of cell proliferation, CyQUANT Direct, COV318. It is filed as cell-based. The settings on record: Homo sapiens; COV318 ovarian cancer cells, 72-hour; read-out: COV 318 proliferation calculated IC50.
The subject of another test is COV504 cells. The experiment in a line: Inhibition of cell proliferation, CyQUANT Direct, COV504. It is filed as cell-based. The settings on record: Homo sapiens; COV504 ovarian cancer cells, 72-hour; read-out: COV 504 proliferation calculated IC50.
Another test relates to MB453 cells. In words: Inhibition of cell proliferation, CyQUANT Direct, MB453. It is filed as cell-based, human. The following applies: Homo sapiens; MB453 triple negative breast cancer cells, 72-hour; read-out: MB 453 proliferation calculated IC50.
In the next test the target is CDK2/Cyclin E1 complex (Homo sapiens, UniProt P24941). The experiment in a line: CDK2 kinase inhibition assay (Caliper/LabChip EZ Reader).
Test [1] concerns the target CDK7/Cyclin H/MAT1 complex (Homo sapiens, UniProt P50613). In words: CDK7 kinase inhibition assay (Caliper/LabChip EZ Reader).
Another test concerns the target CDK9/Cyclin T1 complex (Homo sapiens, UniProt P50750). The experiment in a line: CDK9 kinase inhibition assay (Caliper/LabChip EZ Reader).
Test [2] has as its target CDK12 (aa686-1082)/Cyclin K complex (Homo sapiens, UniProt Q9NYV4). In words: CDK12 kinase inhibition assay (Caliper/LabChip EZ Reader).
Procedure: (§1) Compounds of the invention were assayed for inhibition of CDK7, CDK9, CDK12, and CDK2 activity at Biortus Biosciences (Jiangyin, Jiangsu Province, P.R. of China) using kinase assays for each CDK developed with a Caliper/LabChip EZ Reader (Perkin Elmer, Waltham, MA).
(§2) Furthermore, the CDK9 inhibition assay used CDK9/Cyclin T1 complex (8 nM) and “5-FAM-CDK9tide” peptide substrate (2 μM, synthesized fluorophore-labeled peptide with the following sequence: 5-FAM-GSRTPMY-NH2 (SEQ ID NO:2) where 5-FAM is defined above and NH2 signifies a C-terminal amide) with 10 mM MgCl2 in the buffer composition listed above. The CDK12 inhibition assay used CDK12 (aa686-1082)/Cyclin K complex (50 nM) and “5-FAM-CDK9tide” (2 μM) as defined above, with 2 mM MgCl2 in the buffer composition above. Additionally, the CDK2 inhibition assay used CDK2/Cyclin E1 complex (0.5 nM) and “5-FAM-CDK7tide” (2 μM) as defined above, with 2 mM MgCl2 in the buffer composition listed above.
(§3) The incubation period at 27° C. for each CDK inhibition assay was chosen such that the fraction of phosphorylated peptide product produced in each assay, relative to the total peptide concentration, was approximately 20% (±5%) for the uninhibited kinase (35 min. for CDK7, 35 min. for CDK2, 3 hr. for CDK12, 15 min. for CDK9).

Where only a bound is given, the exact number is not on record here.

Sequence of CDK12 (aa686-1082)/Cyclin K complex (Q9NYV4 686-1082): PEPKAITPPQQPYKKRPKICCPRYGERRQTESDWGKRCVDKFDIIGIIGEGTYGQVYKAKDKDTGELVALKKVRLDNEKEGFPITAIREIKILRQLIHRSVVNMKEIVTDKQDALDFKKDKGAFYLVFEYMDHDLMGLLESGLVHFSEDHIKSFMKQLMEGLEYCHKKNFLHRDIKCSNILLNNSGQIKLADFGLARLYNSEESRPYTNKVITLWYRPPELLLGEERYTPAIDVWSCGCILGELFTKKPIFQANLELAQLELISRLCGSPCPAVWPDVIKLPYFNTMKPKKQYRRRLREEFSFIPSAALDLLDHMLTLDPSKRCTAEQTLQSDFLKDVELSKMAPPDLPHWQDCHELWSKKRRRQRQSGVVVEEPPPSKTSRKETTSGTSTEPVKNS
Sequence of CDK12 (aa686-1082)/Cyclin K complex (O75909 whole entry partner, the tested form may be a part): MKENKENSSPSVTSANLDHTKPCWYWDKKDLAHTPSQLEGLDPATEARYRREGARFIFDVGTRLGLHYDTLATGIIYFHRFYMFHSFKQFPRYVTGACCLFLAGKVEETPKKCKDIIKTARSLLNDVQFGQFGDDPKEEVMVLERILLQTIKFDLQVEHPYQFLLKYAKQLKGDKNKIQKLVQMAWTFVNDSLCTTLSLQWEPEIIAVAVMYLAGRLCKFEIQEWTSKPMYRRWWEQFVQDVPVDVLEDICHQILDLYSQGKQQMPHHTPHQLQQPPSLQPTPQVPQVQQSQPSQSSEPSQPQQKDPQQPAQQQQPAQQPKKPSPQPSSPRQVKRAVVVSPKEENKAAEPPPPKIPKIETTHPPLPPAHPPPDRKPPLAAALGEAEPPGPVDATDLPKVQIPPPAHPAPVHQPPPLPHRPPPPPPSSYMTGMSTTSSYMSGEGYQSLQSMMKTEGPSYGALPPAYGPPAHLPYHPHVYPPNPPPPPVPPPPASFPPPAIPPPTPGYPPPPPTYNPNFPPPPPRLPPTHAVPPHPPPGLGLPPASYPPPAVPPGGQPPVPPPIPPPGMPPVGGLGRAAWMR
Sequence of CDK9/Cyclin T1 complex (P50750 whole entry, the tested form may be a part): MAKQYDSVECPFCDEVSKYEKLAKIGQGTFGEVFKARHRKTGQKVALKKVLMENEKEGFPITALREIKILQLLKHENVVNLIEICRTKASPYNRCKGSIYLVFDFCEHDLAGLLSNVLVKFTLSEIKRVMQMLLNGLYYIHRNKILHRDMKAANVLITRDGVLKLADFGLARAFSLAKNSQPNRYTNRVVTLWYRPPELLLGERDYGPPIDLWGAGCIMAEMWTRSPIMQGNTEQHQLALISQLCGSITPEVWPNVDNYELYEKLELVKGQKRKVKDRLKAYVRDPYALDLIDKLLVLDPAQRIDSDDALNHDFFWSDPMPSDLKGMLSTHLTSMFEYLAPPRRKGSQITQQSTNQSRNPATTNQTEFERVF
Sequence of CDK9/Cyclin T1 complex (O60563 whole entry partner, the tested form may be a part): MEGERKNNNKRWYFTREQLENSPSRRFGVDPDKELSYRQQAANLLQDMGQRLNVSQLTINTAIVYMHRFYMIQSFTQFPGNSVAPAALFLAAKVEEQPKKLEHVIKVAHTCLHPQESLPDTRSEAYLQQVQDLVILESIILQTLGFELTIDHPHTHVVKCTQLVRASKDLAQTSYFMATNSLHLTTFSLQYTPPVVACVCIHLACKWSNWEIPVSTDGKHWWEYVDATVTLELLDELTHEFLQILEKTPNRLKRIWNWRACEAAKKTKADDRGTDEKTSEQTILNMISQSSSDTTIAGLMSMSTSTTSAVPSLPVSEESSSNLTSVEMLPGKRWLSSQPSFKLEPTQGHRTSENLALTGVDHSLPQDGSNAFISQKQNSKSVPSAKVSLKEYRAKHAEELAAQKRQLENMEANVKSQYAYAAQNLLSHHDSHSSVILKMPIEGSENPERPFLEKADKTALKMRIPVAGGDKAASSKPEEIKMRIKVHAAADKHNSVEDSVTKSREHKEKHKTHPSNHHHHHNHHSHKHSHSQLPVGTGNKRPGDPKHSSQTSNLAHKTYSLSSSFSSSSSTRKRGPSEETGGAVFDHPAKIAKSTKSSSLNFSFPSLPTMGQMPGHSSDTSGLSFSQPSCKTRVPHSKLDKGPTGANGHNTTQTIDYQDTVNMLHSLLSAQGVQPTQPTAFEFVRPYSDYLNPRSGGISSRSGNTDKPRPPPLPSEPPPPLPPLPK
Sequence of CDK7/Cyclin H/MAT1 complex (P50613 whole entry): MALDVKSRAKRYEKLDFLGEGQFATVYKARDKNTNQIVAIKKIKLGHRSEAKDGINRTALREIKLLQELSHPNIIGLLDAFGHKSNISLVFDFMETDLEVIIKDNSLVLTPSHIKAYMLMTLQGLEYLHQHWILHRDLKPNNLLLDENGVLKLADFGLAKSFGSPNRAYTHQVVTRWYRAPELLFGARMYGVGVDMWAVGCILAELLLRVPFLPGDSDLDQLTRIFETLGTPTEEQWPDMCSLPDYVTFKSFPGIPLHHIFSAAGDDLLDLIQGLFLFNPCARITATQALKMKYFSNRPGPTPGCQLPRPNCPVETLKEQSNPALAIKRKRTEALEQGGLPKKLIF
Sequence of CDK7/Cyclin H/MAT1 complex (P51946 whole entry partner): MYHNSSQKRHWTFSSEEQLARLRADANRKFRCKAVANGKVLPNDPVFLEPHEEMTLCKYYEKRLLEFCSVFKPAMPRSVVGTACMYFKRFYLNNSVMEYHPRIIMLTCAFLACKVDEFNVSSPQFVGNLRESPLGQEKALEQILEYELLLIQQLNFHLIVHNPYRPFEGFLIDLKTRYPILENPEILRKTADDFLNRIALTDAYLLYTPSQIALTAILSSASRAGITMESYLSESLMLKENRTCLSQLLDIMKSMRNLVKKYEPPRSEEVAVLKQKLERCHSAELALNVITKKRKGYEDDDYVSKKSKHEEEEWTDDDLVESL
Sequence of CDK7/Cyclin H/MAT1 complex (P51948 whole entry partner): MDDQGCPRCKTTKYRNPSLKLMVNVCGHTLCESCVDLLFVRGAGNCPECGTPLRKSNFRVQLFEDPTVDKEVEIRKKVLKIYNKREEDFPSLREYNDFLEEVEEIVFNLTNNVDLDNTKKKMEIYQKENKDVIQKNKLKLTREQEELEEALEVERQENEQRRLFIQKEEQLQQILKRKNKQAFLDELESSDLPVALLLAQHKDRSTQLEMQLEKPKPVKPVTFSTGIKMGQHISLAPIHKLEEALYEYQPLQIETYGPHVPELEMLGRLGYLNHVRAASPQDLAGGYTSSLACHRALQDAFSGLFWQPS
Procedure for CDK2/Cyclin E1 complex: as §1, §2, §3

Turning to `Cc1nsc(-c2ccc3c(-c4nc(N[C@H]5CCC[C@@H]5N)ncc4C(F)(F)F)c[nH]c3n2)n1` [Compound 158, (1S,2S)—N1-[4-[6-(3-methyl-1,2,4-thiadiazol-5-yl)-1H-pyrrolo [2,3-b]pyridin-3-yl]-5-(trifluoromethyl)pyrimidin-2-yl]cyclopentane-1,2-diamine], the IC50 in the test with HCC70 cells is 500 to 2000 nM; with COV318 cells it was over 2000 nM; with COV504 cells it was over 2000 nM; with MB453 cells it was 500 to 2000 nM; on CDK2/Cyclin E1 complex it was over 500 nM; in test [1], under 30 nM. For the same compound, the IC50 (against CDK9/Cyclin T1 complex; in test [2]) was over 500 nM each time.
Consider `Cc1noc(C)c1-c1ccc2c(-c3nc(N[C@H]4CCC[C@@H]4N4CC(O)C4)ncc3C(F)(F)F)c[nH]c2n1` [Compound 159, 1-[(1S,2S)-2-[[4-[6-(3,5-dimethylisoxazol-4-yl)-1H-pyrrolo[2,3-b]pyridin-3-yl]-5-(trifluoromethyl)pyrimidin-2-yl]amino]cyclopentyl] azetidin-3-ol], for which the IC50 in the test with HCC70 cells was under 100 nM; with COV318 cells, over 2000 nM; in the test with COV504 cells it was 100 to 500 nM; in the test on MB453 cells, 100 to 500 nM; against CDK2/Cyclin E1 complex, over 500 nM; in test [1], under 30 nM. Further, the IC50 (against CDK9/Cyclin T1 complex; in test [2]) was over 500 nM throughout.
As to `CCN[C@H]1CC[C@@H]1Nc1ncc(C(F)(F)F)c(-c2c[nH]c3nc(-c4c(C)noc4C)ccc23)n1` [Compound 160, (1S,2S)—N2-[4-[6-(3,5-dimethylisoxazol-4-yl)-1H-pyrrolo[2,3-b]pyridin-3-yl]-5-(trifluoromethyl)pyrimidin-2-yl]-N1-ethyl-cyclobutane-1,2-diamine], the IC50 was under 100 nM in the test with HCC70 cells; under 100 nM in the test on COV318 cells; under 100 nM with COV504 cells; under 100 nM with MB453 cells; over 500 nM against CDK2/Cyclin E1 complex; under 30 nM in test [1]. Also, the IC50 (against CDK9/Cyclin T1 complex; in test [2]) was over 500 nM in each case.
Consider `CP(C)(=O)c1c(C#N)ccc2c(-c3nc(N[C@H]4CCC[C@@H]4N)ncc3C(F)(F)F)c[nH]c12` [Compound 161, 3-[2-[[(1S,2S)-2-aminocyclopentyl]amino]-5-(trifluoromethyl)pyrimidin-4-yl]-7-dimethylphosphoryl-1H-indole-6-carbonitrile], for which the IC50 was under 100 nM in the test with HCC70 cells; 100 to 500 nM in the test with COV318 cells; under 100 nM in the test on COV504 cells; under 100 nM in the test on MB453 cells; over 500 nM against CDK2/Cyclin E1 complex; under 30 nM in test [1]. Besides, the IC50 (against CDK9/Cyclin T1 complex; in test [2]) was over 500 nM in each case.
With `Cc1noc(C)c1-c1ccc2c(-c3nc(N[C@H]4CCC[C@H]4N4CC(O)C4)ncc3C(F)(F)F)c[nH]c2n1` [Compound 163, 1-[(1R,2S)-2-[[4-[6-(3,5-dimethylisoxazol-4-yl)-1H-pyrrolo[2,3-b]pyridin-3-yl]-5-(trifluoromethyl)pyrimidin-2-yl]amino]cyclopentyl]azetidin-3-ol], the IC50 was over 2000 nM in the test on HCC70 cells; over 2000 nM with COV318 cells; over 2000 nM with COV504 cells; 500 to 2000 nM in the test with MB453 cells; over 500 nM against CDK2/Cyclin E1 complex; 30 to 100 nM in test [1]. Moreover, the IC50 (against CDK9/Cyclin T1 complex; in test [2]) was over 500 nM each time.
As for `COC1CN([C@H]2CCC[C@@H]2Nc2ncc(C(F)(F)F)c(-c3c[nH]c4nc(-c5c(C)noc5C)ccc34)n2)C1` [Compound 164, 4-[6-(3,5-dimethylisoxazol-4-yl)-1H-pyrrolo[2,3-b]pyridin-3-yl]-N-[(1S,2S)-2-(3-methoxyazetidin-1-yl)cyclopentyl]-5-(trifluoromethyl)pyrimidin-2-amine], the IC50 was 100 to 500 nM in the test with HCC70 cells; over 2000 nM in the test on COV318 cells; 100 to 500 nM in the test with COV504 cells; 100 to 500 nM in the test with MB453 cells; over 500 nM against CDK2/Cyclin E1 complex; under 30 nM in test [1]. In addition, the IC50 (at CDK9/Cyclin T1 complex; in test [2]) was over 500 nM each time.
For the compound `COC1CN([C@@H]2CCC[C@@H]2Nc2ncc(C(F)(F)F)c(-c3c[nH]c4nc(-c5c(C)noc5C)ccc34)n2)C1` [Compound 165, 4-[6-(3,5-dimethylisoxazol-4-yl)-1H-pyrrolo[2,3-b]pyridin-3-yl]-N-[(1S,2R)-2-(3-methoxyazetidin-1-yl)cyclopentyl]-5-(trifluoromethyl)pyrimidin-2-amine], the IC50 with HCC70 cells was over 2000 nM; in the test on COV318 cells, over 2000 nM; with COV504 cells it was over 2000 nM; in the test with MB453 cells it was 500 to 2000 nM; against CDK2/Cyclin E1 complex, over 500 nM; in test [1], 30 to 100 nM. Further, the IC50 (on CDK9/Cyclin T1 complex; in test [2]) was over 500 nM throughout.
Turning to `Cc1noc(C)c1-c1ccc2c(-c3nc(N[C@H]4CCC[C@@H]4N4CC(F)(F)C4)ncc3C(F)(F)F)c[nH]c2n1` [Compound 166, N-[(1S,2S)-2-(3,3-difluoroazetidin-1-yl)cyclopentyl]-4-[6-(3,5-dimethylisoxazol-4-yl)-1H-pyrrolo[2,3-b]pyridin-3-yl]-5-(trifluoromethyl)pyrimidin-2-amine], the IC50 was over 2000 nM in the test on HCC70 cells; over 2000 nM in the test with COV318 cells; over 2000 nM in the test on COV504 cells; over 2000 nM in the test on MB453 cells; over 500 nM on CDK2/Cyclin E1 complex; over 500 nM in test [1]. Also, the IC50 (at CDK9/Cyclin T1 complex; in test [2]) was over 500 nM in each case.
Take `Cc1noc(C)c1-c1ccc2c(-c3nc(N[C@H]4CCC[C@H]4N4CC(F)(F)C4)ncc3C(F)(F)F)c[nH]c2n1` [Compound 167, N-[(1S,2R)-2-(3,3-difluoroazetidin-1-yl)cyclopentyl]-4-[6-(3,5-dimethylisoxazol-4-yl)-1H-pyrrolo[2,3-b]pyridin-3-yl]-5-(trifluoromethyl)pyrimidin-2-amine]: the IC50 in the test on HCC70 cells was over 2000 nM; with COV318 cells, over 2000 nM; with COV504 cells, over 2000 nM; in the test with MB453 cells it was over 2000 nM; against CDK2/Cyclin E1 complex it was over 500 nM; in test [1], over 500 nM. The IC50 (on CDK9/Cyclin T1 complex; in test [2]) was over 500 nM throughout.
As for `N[C@H]1CCC[C@@H]1Nc1ncc(C(F)(F)F)c(-c2c[nH]c3c(Cl)c(O)ccc23)n1` [Compound 168, 3-[2-[[(1S,2S)-2-aminocyclopentyl]amino]-5-(trifluoromethyl)pyrimidin-4-yl]-7-chloro-1H-indol-6-ol], the IC50 in the test on HCC70 cells is 100 to 500 nM; in the test on COV318 cells it was 100 to 500 nM; in the test on COV504 cells it was under 100 nM; in the test on MB453 cells, under 100 nM; against CDK2/Cyclin E1 complex, over 500 nM; in test [1], under 30 nM. In addition, the IC50 (on CDK9/Cyclin T1 complex; in test [2]) was over 500 nM throughout.
